The values that follow come from US7008949B2, “Heterocyclic compounds which inhibit leukocyte adhesion mediated by α4 integrins” (Elan Pharmaceuticals, Inc., priority 2003, dated 2006).

In brackets after ≈: the same amount, converted by molar mass.

Usually IC50 stands for the concentration needed to halve the response being measured.

One data set has as its target T1, α4β1 Integrin (Homo sapiens, UniProt P05556+P13612).
T1 construct: endogenous in cells; host or cells: Jurkat cells
The experiment in a line: α4β1 Integrin Adhesion Assay: Jurkat cell adhesion to human plasma fibronectin. It is filed as cell-based. The conditions noted are these: Jurkat cells. As for the experimental part:
96 well plates (Costar 3590 EIA plates) were coated with human fibronectin (Gibco/BRL, cat #33016-023) at a concentration of 10 μg/mL overnight at 4° C. The plates were then blocked with a solution of bovine serum albumin (BSA; 0.3%) in saline. Jurkat™ cells (maintained in log phase growth) were labeled with Calcein AM according to the manufacturer's instructions, and suspended at a concentration of 2×10^6 cells/mL in Hepes/Saline/BSA. The cells were then exposed to test and control compounds for 30 minutes at room temperature before transfer to individual wells of the fibronectin coated plate. Adhesion was allowed to occur for 35 minutes at 37° C. The wells were then washed by gentle aspiration and pipetting with fresh saline. Fluorescence associated with the remaining adherent cells was quantified using a fluorescence plate reader at EX 485/EM 530.
Cell cultures were prepared by first splitting the stationary phase Jurkat™ cells at 1:10 on day one, and 1:2 on day two to perform assay on day 3. The cells split 1:10 on day one were split 1:4 on day 3 for a day 4 assay.
The assay plates were prepared by first making a working solution of Gibco/BRL Human Fibronectin (cat # 33016-023) in PBS++, at 10 μg/mL.
A Costar 3590 EIA plate was then coated with 50 μL/well for 2 hours at room temperature (thought it can also be left overnight at 4° C.). Finally the plate was asperated and blocked with Hepes/Saline Buffer, 100 μL/well, for 1 hour at RT followed by washing three times with 150 μL of PBS++.
Compound dilutions were accomplished by preparing 1:3 serial dilutions of compounds as follows. For each plate (4 compounds/plate) 600 μL were added to 4 Bio-Rad Titertubes in a Titertube rack. Enough compound was added to each appropriate tube to give a 2× concentration using methods well known in the art. Using Falcon Flexiplates, 100 μL of Hepes/Saline buffer or human serum were added to rows B through G. A multi-channel pipetter set to 180 μL was used to with four tips spaced evenly the pipetter. Each set of four tubes was mixed 5 times and 180 μL of 2× compound was transferred to the first column of each compound dilution in Row B, leaving Row A empty. 180 μL were added to the other wells in Row A. Serial dilutions were performed down the plate by transferring 50 μL to the next dilution and mixing 5 times, changing tips each time after mixing. Dilutions were stopped at Row F. Row G had no compound present.
A 20 μg/mL solution in Hepes/Saline buffer or human serum, of 21/6 antibody was the positive control and was set aside in a reagent trough to add to cell suspension plate.
The cell staining was accomplished by first harvesting the log-phase Jurkat™ cells by centrifugation in 50 mL tubes (1100 rpm for 5 minutes). The cells were resuspended in 50 mL PBS++, spun, and resuspend in 20 mL PBS++. The cells were stained by adding 20 μL of Calcein AM for 30 minutes R.T. The volume was brought to 50 mL with Hepes/Saline buffer and the cells were counted, spun, and resuspend to 2×10^6 cells/mL in Hepes/Saline buffer or human serum.
The compounds were incubated using the following procedure. In a new flexiplate, 65 μL of stained cells were added to Rows B through H. Then 65 μL of 2× compounds were added to the appropriate rows following the plate setup and mixed 3×. 65 μL of 2×-21/6 antibody were added to Row H and mixed 3×. Finally the plate was incubated at room temperature for 30 minutes.
Fibronectin adhesion was measured using a fluorescent plate reader at EX 485/EM 530 after the following work up procedure. After incubation, the cells were mixed 3× and 100 μL were transferred to the Fibronectin coated plates and incubated at 37° C. for about 35 minutes. Each plate was washed, row by row, by gently pipetting 100 μL of R.T. PBS++ down the sides of the wells and turning the plate 90 degrees to aspirate. This procedure was repeated for a total of 3 washes. Each well was filled with 100 μL after washing by pipetting down the side of the well. […]

Data set [1] is described as follows: Cassette dosing and serum analysis for determination of oral bioavailability. It is filed as in vivo, rat. The following applies: male SD rats, oral cassette of 6 compounds, total dose 10 mg/kg, plasma at 4, 8, 12 h. As for the experimental part:
The oral bioavailability was screened by dosing rats with a cassette, i.e. mixture of 6 compounds per dosing solution. The cassette included 5 test articles and a standard compound, for a total dose of 10 mg/kg. Each compound/test article was converted to the sodium salt with equimolar 1 N NaOH and dissolved in water at 2 mg/mL. The cassette was prepared by mixing equal volumes of each of the six solutions. The cassette dosing solution was mixed well and then the pH was adjusted to 7.5–9. The dosing solution was prepared the day before the study and stirred overnight at room temperature.
Male Sprague Dawley (SD) rats from Charles River Laboratories, 6–8 weeks old were used in this screen. Rats were quarantined for at least one day and had continuous access to food and water. On the night before the administration of the cassette, the rats were fasted for approximately 16 h.
Four SD rats were assigned in each cassette. A single dose of the dosing solution was administered orally to each rat. The dosing volume (5 mL/kg) and time were recorded and rats were fed 2 h after dosing.
Blood samples were collected via cardiac puncture at the following time points: 4 h, 8 h and 12 h. Immediately prior to blood collection, rats were anesthetized with CO2 gas within 10–20 seconds. After the 12-hour samples were collected, the rats were euthanized via CO2 asphyxiation followed by cervical dislocation.
Blood samples were kept in heparinized microtainer tubes under sub-ambient temperature (4° C.) before they were processed. Blood samples were centrifuged (10000 rpm for 5 minutes) and plasma samples were removed and stored in a −20° C. freezer until analyzed for drug levels. Drug levels in the plasma were analyzed using the following protocol for direct plasma precipitation.
The in vivo plasma samples were prepared in a 1.5 mL 96-well plate, by adding, in order, 100 μL of the test plasma, 150 μL of methanol, followed by vortexing for 10–20 seconds. 150 μL of 0.05 ng/μL of an Internal Standard in acetonitrile were added and vortexed for 30 seconds.
The standard curve samples were prepared in a 1.5 mL 96-well plate, by adding, in order, 100 μL of control mouse plasma, followed by 150 μL of methanol and vortexing for 10–20 seconds. 150 μL of 0.05 ng/μL of an Internal Standard in acetonitrile were added and vortexed for 30 seconds. The samples were spiked with 0–200 ng (10 concentrations) of the compound of interest in 50% methanol to obtain a standard curve range of 0.5 ng/mL–2,000 ng/mL. Again, the sample was vortexed for 30 seconds.
The samples were then spun for 20–30 minutes at 3000 rpm in an Eppendorf microfuge before 80–90% of supernatant was transferred into a clean 96-well plate. The organic solvent was then evaporated until the samples were dry (under N2 at 40° C./30–60 min (ZymarkTurbovap)).
The residue was then dissolved in […] mobile phase (50% CH3OH/0.1% TFA). LC/MS/MS was then run using a PE-Sciex API-3000 triple quadurpole mass spectrometer (SN0749707), Perkin-Elmer, Series200auto-sampler, and shimadzu 10A pump. Acquisition was done with PE-Sciex Analyst (v1.1) and data analysis and quantification were accomplished using PE-Sciex Analyst (v1.1). A 5–50 μL sample volume was injected onto a reverse phase ThermoHypersil DASH-18 column (Keystone 2.0×20 mm, 5 μm, PN: 8823025-701) using a mobile phase of 25% CH3OH, 0.1% TFA-100% CH3OH, 0.1% TFA. The run time was about 8 minutes at a flow rate of about 300 μL/minutes.
The Area Under the Curve (AUC) was calculated using the linear trapezoidal rule from t=0 to the last sampling time tx (see Handbook of Basic Pharmacokinetics, Wolfgang A. Ritschel and Gregory L. Kearns, 5th ed, 1999). AUC^0→tx═S((Cn+Cn+1)/2))·(tn+1−tn)[(μg/mL)h]
In the case of the cassette dosing paradigm, samples at 4, 8 and 12 h post extravascular dosing, the AUC was calculated from t=0 to t=12 h.

[2] abbreviates: IC50, Cell Adhesion to Human Plasma Fibronectin (With Human Serum), with human serum.
[3] abbreviates: IC50, Cell Adhesion to Human Plasma Fibronectin (Without the Human Serum), without human serum.

T1 sequence (P13612 34-1032): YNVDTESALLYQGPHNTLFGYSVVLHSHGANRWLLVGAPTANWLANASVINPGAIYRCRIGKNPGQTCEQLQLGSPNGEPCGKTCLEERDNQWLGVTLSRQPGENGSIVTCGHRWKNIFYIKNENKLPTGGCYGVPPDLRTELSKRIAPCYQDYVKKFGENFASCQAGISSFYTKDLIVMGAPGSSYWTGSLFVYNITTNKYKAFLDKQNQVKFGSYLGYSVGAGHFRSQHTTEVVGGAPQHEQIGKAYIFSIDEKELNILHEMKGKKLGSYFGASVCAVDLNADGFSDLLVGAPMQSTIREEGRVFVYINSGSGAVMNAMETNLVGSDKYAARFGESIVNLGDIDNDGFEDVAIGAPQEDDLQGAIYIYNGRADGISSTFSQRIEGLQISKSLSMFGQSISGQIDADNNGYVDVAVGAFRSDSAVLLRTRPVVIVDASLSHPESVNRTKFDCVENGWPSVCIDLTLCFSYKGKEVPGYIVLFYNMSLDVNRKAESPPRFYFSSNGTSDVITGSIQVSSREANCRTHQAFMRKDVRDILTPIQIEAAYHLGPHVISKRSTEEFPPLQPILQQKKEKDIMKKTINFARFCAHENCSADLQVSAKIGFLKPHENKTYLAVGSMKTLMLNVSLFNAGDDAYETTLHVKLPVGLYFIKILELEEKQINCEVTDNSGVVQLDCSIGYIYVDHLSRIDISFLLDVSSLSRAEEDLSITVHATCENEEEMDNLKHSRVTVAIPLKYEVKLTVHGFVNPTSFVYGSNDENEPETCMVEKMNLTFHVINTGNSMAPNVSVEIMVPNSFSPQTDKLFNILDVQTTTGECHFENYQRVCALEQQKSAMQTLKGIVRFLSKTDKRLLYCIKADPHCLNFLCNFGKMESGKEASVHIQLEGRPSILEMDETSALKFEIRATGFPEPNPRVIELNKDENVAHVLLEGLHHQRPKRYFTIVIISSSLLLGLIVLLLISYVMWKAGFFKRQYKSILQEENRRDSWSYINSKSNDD
T1 sequence (P05556 21-798): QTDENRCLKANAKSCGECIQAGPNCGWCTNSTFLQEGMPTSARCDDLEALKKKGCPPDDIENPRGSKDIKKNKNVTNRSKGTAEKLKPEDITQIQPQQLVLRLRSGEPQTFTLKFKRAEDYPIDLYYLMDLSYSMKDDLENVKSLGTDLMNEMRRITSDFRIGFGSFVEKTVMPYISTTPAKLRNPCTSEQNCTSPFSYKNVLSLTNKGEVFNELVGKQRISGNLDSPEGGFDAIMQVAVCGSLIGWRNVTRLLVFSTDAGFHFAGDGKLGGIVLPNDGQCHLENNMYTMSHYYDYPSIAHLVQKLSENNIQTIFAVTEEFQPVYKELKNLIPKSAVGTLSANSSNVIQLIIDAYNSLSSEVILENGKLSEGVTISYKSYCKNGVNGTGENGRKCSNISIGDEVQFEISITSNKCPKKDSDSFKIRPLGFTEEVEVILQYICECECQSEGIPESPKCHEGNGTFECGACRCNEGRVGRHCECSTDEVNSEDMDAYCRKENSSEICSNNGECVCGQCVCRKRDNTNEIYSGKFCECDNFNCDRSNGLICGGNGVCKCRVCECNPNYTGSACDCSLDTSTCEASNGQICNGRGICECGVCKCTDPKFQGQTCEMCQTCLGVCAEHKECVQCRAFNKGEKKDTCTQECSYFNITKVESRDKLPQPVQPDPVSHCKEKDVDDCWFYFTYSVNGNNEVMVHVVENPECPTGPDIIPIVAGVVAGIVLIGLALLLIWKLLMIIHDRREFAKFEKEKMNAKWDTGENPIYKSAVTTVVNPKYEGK

For `CCN(CC)c1ncc(N(CC2CC2)S(=O)(=O)c2ccc(F)cc2)c(N[C@@H](Cc2ccc(OC(=O)N(C)C)cc2)C(=O)O)n1` [Example 14, 2-{2-diethylamino-5-[(4-fluorobenzenesulfonyl)cylclopropylmethylamino]pyrimidin-4-ylamino}-3-(4-dimethylcarbamoyl-oxyphenyl)propionic acid], the IC50 against α4β1 Integrin (setting [2]) was 63.6 nM; on α4β1 Integrin (setting [3]), 1.59 nM. Also, the “AUC (average AUC 0→12 h)” value in data set [1] is reported as 0.7164 (μg/mL)h.

Regarding `CCN(CC)c1ncc(N(C(C)C)S(=O)(=O)c2ccc(Cl)cc2)c(N[C@@H](Cc2ccc(OC(=O)N(C)C)cc2)C(=O)O)n1` [Example 11], the results for the IC50 against α4β1 Integrin (setting [2]) and on α4β1 Integrin (setting [3]) were 362 nM and 3.85 nM, respectively. Besides, the “AUC (average AUC 0→12 h)” value in data set [1] was 0.4251 (μg/mL)h.

`CCN(CC)c1ncc(N(C)S(=O)(=O)c2cc(F)cc(F)c2)c(N[C@@H](Cc2ccc(OC(=O)N(C)C)cc2)C(=O)O)n1` [Example 15, 2-{2-diethylamino-5-[(3.5-difluorobenzenesulfonyl)methylamino]pyrimidin-4-ylamino}-3-(4-dimethylcarbamoyloxypheyl) propionic acid]: the IC50 on α4β1 Integrin (setting [2]) is 205 nM; at α4β1 Integrin (setting [3]), 1.51 nM. Besides, the “AUC (average AUC 0→12 h)” value in data set [1] is listed as 0.2098 (μg/mL)h.

For `CCN(CC)c1ncc(N(CC)S(=O)(=O)c2ccc(F)cc2F)c(N[C@@H](Cc2ccc(OC(=O)N(C)C)cc2)C(=O)O)n1` [Example 18], the IC50 is 40.3 nM at α4β1 Integrin (setting [2]) and 3.22 nM at α4β1 Integrin (setting [3]). Also, the “AUC (average AUC 0→12 h)” value in data set [1] is reported as 0.2578 (μg/mL)h.

`CCN(CC)c1ncc(N(CC(F)(F)F)S(=O)(=O)c2ccc(F)cc2)c(NC(Cc2ccc(OC(=O)N(C)C)cc2)C(=O)O)n1` (stereo not drawn) [Example 29, 2-{2-diethylamino-5-[(4-fluorobenzenesulfonyl)-(2,2,2-trifluoroethyl)amino]pyrimidin-4-ylamino}-3-(4-dimethylcarbamoyloxyphenyl)propionic acid]: the values for the IC50 against α4β1 Integrin (setting [2]) and against α4β1 Integrin (setting [3]) were 53 nM and 3.35 nM, respectively. The “AUC (average AUC 0→12 h)” value in data set [1] was 0.2941 (μg/mL)h.

Regarding `CCN(CC)c1ncc(N(C)S(=O)(=O)c2cc(F)ccc2F)c(NC(Cc2ccc(OC(=O)N(C)C)cc2)C(=O)O)n1` (stereo not drawn) [Example 25], the “IC50, Cell Adhesion to Human Plasma Fibronectin (With Human Serum)” value (“IC50, Cell Adhesion … (With Human Serum)” below) against α4β1 Integrin (with human serum) was 6.72 µg/mL (≈ 11.1 µM). Besides, the “IC50, Cell Adhesion to Human Plasma Fibronectin (Without the Human Serum)” value (“IC50, Cell Adhesion … (Without the Human Serum)” for short) against α4β1 Integrin (without human serum) is 0.006 µg/mL (≈ 0.00989 µM). Further, the “AUC (average AUC 0→12 h)” value in data set [1] is on record as 0.4559 (μg/mL)h.

On to “2-{2-diethylamino-5-[(4-fluorobenzenesulfonyl)allylamino]pyrimidin-4-ylamino}-3-(4-dimethylcarbamoyloxyphenyl)propionic acid [Example 22]”, for which the “IC50, Cell Adhesion … (With Human Serum)” value on α4β1 Integrin (with human serum) stood at 0.02529 µg/mL. Besides, the “IC50, Cell Adhesion … (Without the Human Serum)” value against α4β1 Integrin (without human serum) stood at 0.001506 µg/mL. In addition, in data set [1], the “AUC (average AUC 0→12 h)” value was 0.6297 (μg/mL)h.

Regarding “2-{2-diethylamino-5-[(4-chlorobenzenesulfonyl)ethylamino] pyrimidin-4-ylamino}-3-(4-dimethylcarbamoyloxyphenyl)propionic acid [Example 13]”, the “IC50, Cell Adhesion … (With Human Serum)” value on α4β1 Integrin (with human serum) was 0.075 µg/mL. Moreover, on α4β1 Integrin (without human serum), the “IC50, Cell Adhesion … (Without the Human Serum)” value turned out to be 0.004 µg/mL. Moreover, in data set [1], the “AUC (average AUC 0→12 h)” value was 1.5806 (μg/mL)h.

Turning to `CCN(CC)c1ncc(N(C(C)C)S(=O)(=O)c2ccc(F)c(F)c2)c(NC(Cc2ccc(OC(=O)N(C)C)cc2)C(=O)O)n1` (stereo not drawn) [Example 10, 2-{2-diethylamino-5-[(3,4-difluorobenzenesulfonyl)isopropylamino]pyrimidin-4-ylamino}-3-(4-dimethylcarbamoyloxyphenyl) propionic acid], the concentration for half-maximal inhibition (IC50) was 404 nM against α4β1 Integrin (setting [2]) and 7.33 nM against α4β1 Integrin (setting [3]). In addition, the “AUC (average AUC 0→12 h)” value in data set [1] is recorded as 0.1215 (μg/mL)h.

Turning to `CCCN(c1cnc(N(CC)CC)nc1NC(Cc1ccc(OC(=O)N(C)C)cc1)C(=O)O)S(=O)(=O)c1ccc(F)cc1` (stereo not drawn) [Example 21, 2-{2-diethylamino-5-[(4-fluorobenzenesulfonyl)-n-propylamino]pyrimidin-4-ylamino}-3-(4-dimethylcarbamoyloxyphenyl) propionic acid], the IC50 at α4β1 Integrin (setting [2]) was 649 nM; against α4β1 Integrin (setting [3]), 5.09 nM. Also, the “AUC (average AUC 0→12 h)” value in data set [1] is 0.6321 (μg/mL)h.

Take “2-{2-diethylamino-5-[(4-chlorobenzenesulfonyl)methylamino]pyrimidin-4-ylamino}-3-(4-dimethylcarbamoyloxyphenyl)propionic acid [Example 2]”: the “IC50, Cell Adhesion … (With Human Serum)” value against α4β1 Integrin (with human serum) was 0.317 µg/mL. Also, the “IC50, Cell Adhesion … (Without the Human Serum)” value against α4β1 Integrin (without human serum) came out at 0.002 µg/mL. The “AUC (average AUC 0→12 h)” value in data set [1] was 1.8689 (μg/mL)h.
